{"source": "ChEMBL document CHEMBL5505961", "about": "“RIPK1 inhibitors: A key to unlocking the potential of necroptosis in drug development” (Eur J Med Chem, 2024)", "key": {"[1]": {"test_system": "Jurkat", "test": "cells", "conditions": "Homo sapiens, 24 h"}, "[2]": {"test": "clinical", "conditions": "human"}, "[3]": {"test_system": "HT-29", "test": "cells", "conditions": "Homo sapiens, HT-29, 24 h"}, "[4]": {"test_system": "L929", "test": "cells", "conditions": "Mus musculus, L929, 24 h"}, "[5]": {"target": "T1, Receptor-interacting serine/threonine-protein kinase 1 (Homo sapiens, UniProt Q13546)", "T1 sequence (Q13546 whole entry)": "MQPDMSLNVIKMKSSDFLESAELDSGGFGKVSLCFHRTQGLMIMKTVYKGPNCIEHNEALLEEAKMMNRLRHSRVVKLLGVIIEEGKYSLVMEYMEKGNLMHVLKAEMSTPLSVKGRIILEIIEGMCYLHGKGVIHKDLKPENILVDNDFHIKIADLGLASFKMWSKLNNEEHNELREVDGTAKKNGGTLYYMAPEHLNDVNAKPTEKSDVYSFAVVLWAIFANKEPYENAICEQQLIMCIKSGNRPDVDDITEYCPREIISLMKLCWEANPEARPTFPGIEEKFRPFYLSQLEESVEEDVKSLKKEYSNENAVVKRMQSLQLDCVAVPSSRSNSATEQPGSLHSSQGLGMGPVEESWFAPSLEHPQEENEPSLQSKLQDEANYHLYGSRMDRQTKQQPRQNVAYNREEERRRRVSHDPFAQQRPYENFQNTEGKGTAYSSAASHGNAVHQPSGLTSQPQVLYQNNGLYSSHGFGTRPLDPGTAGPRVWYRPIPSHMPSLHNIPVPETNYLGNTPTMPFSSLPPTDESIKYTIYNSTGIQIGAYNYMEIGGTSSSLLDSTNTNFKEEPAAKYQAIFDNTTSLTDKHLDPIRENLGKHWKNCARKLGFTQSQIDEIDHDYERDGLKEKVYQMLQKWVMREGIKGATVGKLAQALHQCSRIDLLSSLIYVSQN"}, "[6]": {"target": "T2, Eukaryotic translation initiation factor 2-alpha kinase 3 (Homo sapiens, UniProt Q9NZJ5)", "T2 sequence (Q9NZJ5 whole entry)": "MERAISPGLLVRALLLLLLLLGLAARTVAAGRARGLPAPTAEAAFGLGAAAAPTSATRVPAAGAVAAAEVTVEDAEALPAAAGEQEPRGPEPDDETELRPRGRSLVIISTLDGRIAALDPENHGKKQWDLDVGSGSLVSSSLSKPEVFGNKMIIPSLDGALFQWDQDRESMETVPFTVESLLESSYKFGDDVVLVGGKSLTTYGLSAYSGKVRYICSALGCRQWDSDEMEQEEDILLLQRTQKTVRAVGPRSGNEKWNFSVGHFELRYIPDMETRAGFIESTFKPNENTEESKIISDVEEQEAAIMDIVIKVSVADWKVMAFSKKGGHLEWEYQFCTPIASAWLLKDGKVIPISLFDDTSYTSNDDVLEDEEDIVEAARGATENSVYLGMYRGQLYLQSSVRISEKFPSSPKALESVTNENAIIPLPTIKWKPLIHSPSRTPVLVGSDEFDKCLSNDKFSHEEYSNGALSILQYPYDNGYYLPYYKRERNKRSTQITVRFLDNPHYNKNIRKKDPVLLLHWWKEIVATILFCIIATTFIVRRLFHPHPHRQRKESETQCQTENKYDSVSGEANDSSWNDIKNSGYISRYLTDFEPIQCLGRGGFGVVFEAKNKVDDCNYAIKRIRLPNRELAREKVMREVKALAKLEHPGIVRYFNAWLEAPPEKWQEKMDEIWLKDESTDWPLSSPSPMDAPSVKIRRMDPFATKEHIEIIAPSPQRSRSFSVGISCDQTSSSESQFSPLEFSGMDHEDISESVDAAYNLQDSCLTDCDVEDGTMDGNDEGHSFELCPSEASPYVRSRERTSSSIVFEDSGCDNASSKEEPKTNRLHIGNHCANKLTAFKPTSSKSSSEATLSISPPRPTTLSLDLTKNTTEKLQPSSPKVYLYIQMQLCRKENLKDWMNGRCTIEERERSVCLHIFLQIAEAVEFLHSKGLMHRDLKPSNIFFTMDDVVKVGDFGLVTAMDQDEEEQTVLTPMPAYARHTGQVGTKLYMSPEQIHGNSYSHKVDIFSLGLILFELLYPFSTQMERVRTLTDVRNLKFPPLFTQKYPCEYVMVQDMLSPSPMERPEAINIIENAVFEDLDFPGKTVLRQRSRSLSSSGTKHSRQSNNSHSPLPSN"}, "[7]": {"test_system": "Jurkat", "test": "cells", "conditions": "Homo sapiens"}, "[8]": {"target": "T3, Receptor-interacting serine/threonine-protein kinase 3 (Homo sapiens, UniProt Q9Y572)", "T3 sequence (Q9Y572 whole entry)": "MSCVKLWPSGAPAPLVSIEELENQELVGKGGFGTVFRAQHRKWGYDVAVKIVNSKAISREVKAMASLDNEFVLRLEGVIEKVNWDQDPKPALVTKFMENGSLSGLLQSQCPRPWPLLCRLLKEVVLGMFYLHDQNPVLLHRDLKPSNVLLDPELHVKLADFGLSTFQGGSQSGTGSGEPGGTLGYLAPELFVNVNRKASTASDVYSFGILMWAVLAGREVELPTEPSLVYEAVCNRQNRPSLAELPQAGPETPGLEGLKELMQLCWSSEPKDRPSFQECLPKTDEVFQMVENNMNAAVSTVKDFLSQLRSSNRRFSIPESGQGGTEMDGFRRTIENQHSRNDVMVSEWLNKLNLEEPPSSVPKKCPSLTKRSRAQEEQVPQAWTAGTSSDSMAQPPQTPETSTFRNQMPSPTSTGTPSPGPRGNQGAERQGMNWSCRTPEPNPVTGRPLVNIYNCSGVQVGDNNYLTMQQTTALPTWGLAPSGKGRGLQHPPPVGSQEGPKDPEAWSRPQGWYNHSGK"}, "[9]": {"target": "T1, Receptor-interacting serine/threonine-protein kinase 1", "remark": "listed apart in the source"}, "[10]": {"test_system": "HT-29", "test": "cells", "conditions": "Homo sapiens"}, "[11]": {"target": "Receptor-interacting serine/threonine-protein kinase 2 (Homo sapiens, UniProt O43353)", "sequence (O43353 whole entry)": "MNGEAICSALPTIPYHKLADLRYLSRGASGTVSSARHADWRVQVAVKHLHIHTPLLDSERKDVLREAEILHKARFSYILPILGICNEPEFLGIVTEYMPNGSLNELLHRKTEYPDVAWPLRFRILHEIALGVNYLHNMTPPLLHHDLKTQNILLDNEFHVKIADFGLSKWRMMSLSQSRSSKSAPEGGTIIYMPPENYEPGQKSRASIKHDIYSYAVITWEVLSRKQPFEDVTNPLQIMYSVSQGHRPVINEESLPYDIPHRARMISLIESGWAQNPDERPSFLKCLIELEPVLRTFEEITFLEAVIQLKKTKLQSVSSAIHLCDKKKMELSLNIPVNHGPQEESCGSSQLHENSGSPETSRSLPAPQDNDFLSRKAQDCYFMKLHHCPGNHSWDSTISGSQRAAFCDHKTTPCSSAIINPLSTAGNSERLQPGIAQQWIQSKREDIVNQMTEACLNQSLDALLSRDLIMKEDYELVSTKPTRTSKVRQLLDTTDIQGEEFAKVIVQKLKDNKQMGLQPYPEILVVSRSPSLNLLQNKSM"}, "[12]": {"test_system": "TOV21G", "test": "cells", "conditions": "Homo sapiens"}, "[13]": {"test_system": "HT-29", "test": "cells", "conditions": "Homo sapiens", "remark": "listed apart in the source"}, "[14]": {"test_system": "U-937", "test": "cells", "conditions": "Homo sapiens"}, "[15]": {"target": "T1, Receptor-interacting serine/threonine-protein kinase 1", "remark": "listed apart in the source"}, "[16]": {"target": "Indoleamine 2,3-dioxygenase 1 (Homo sapiens, UniProt P14902)", "sequence (P14902 whole entry)": "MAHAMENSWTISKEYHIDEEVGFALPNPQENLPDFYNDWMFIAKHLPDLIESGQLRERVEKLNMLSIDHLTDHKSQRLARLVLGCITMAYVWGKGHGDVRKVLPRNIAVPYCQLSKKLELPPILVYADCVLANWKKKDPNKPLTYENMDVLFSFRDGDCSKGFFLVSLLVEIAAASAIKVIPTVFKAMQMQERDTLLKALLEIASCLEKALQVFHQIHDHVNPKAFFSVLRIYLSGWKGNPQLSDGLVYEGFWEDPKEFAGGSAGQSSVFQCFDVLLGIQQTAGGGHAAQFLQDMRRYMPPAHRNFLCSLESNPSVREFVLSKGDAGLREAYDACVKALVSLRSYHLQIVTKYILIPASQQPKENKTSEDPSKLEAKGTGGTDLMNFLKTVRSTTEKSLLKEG", "test": "Inhibition of IDO (unknown origin)"}, "[17]": {"test_system": "Jurkat", "test": "Antiproliferative activity against human Jurkat cells assessed as reduction in cell viability by MTT assay", "type": "functional, cell-based"}, "[18]": {"test_system": "HT-29", "test": "cells", "conditions": "Homo sapiens, HT-29, 1 h"}, "[19]": {"test": "cells", "conditions": "Homo sapiens, HT-29, 1 h"}, "[20]": {"test_system": "MEF", "test": "cells", "conditions": "Mus musculus, 24 h"}, "[21]": {"test_system": "HT-22", "test": "cells", "conditions": "Mus musculus, HT-22, 24 h"}, "[22]": {"target": "T3, Receptor-interacting serine/threonine-protein kinase 3", "remark": "listed apart in the source"}, "[23]": {"target": "T4, Regulator of chromosome condensation (Homo sapiens, UniProt P18754)", "T4 sequence (P18754 whole entry)": "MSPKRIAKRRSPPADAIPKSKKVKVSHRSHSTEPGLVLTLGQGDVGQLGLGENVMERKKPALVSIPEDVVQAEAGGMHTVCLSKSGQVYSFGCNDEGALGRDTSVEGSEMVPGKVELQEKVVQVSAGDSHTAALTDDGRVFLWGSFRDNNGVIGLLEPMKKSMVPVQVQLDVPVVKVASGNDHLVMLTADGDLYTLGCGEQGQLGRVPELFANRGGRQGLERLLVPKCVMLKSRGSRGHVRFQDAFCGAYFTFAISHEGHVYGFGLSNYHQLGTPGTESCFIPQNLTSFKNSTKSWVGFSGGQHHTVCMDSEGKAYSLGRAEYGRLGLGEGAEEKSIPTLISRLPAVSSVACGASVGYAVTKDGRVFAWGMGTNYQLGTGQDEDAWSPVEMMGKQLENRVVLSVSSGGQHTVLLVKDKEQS"}, "[24]": {"target": "T1, Receptor-interacting serine/threonine-protein kinase 1", "remark": "listed apart in the source"}, "[25]": {"test_system": "L929", "test": "cells", "conditions": "Mus musculus"}}, "data": [{"compound": "Cc1nnsc1C(=O)N[C@H](C)c1c(F)cccc1Cl", "values": [{"measurement": "EC50", "setting": "[1]", "value": 400, "unit": "nM"}, {"measurement": "half-life", "setting": "[2]", "value": 32.5, "unit": "min"}]}, {"compound": "CC(=O)NC1=NC2C=CC(c3cnc4ccn(C(=O)OC5CCCCC5)c4c3)=CC2S1", "note": "(stereo unspecified)", "values": [{"measurement": "EC50", "setting": "[3]", "value": 58, "unit": "nM"}, {"measurement": "EC50", "setting": "[4]", "value": 26, "unit": "nM"}]}, {"compound": "Cn1cc(-c2ccc3c(c2)CCN3C(=O)Cc2ccc(C(F)(F)F)cn2)c2c(N)ncnc21", "values": [{"measurement": "IC50", "setting": "[5]", "value": 2.9, "unit": "nM"}, {"measurement": "IC50", "setting": "[6]", "value": "> 5000", "unit": "nM"}]}, {"compound": "CN1C(=O)[C@@H](Cc2c[nH]c3c(Cl)c(F)ccc23)N(C=O)C1=O", "values": [{"measurement": "IC50", "setting": "[7]", "value": 185, "unit": "nM"}, {"measurement": "IC50", "setting": "[8]", "value": 366, "unit": "nM"}]}, {"compound": "O=C(NCCc1ccccc1Cl)c1cn(-c2ccccc2)nn1", "values": [{"measurement": "IC50", "setting": "[9]", "value": 250, "unit": "nM"}]}, {"compound": "C[C@@H](Oc1cc(-c2cnn(C3CCNCC3)c2)cnc1N)c1c(Cl)ccc(F)c1Cl", "note": "[CRIZOTINIB]", "values": [{"measurement": "IC50", "setting": "[7]", "value": 2380, "unit": "nM"}]}, {"compound": "COc1cc(CCc2cc(NC(=O)c3ccc(N4C[C@@H](C)N[C@@H](C)C4)cc3)n[nH]2)cc(OC)c1", "note": "[FEXAGRATINIB]", "values": [{"measurement": "EC50", "setting": "[10]", "value": 19, "unit": "nM"}, {"measurement": "IC50", "setting": "[11]", "value": 259, "unit": "nM"}, {"measurement": "EC50", "setting": "[12]", "value": 52, "unit": "nM"}, {"measurement": "IC50", "setting": "[8]", "value": 10000, "unit": "nM"}, {"measurement": "EC50", "setting": "[13]", "value": 19, "unit": "nM"}, {"measurement": "EC50", "setting": "[14]", "value": 31, "unit": "nM"}, {"measurement": "IC50", "setting": "[15]", "value": 12, "unit": "nM"}]}, {"compound": "Cc1ccc(F)c(NC(=O)Nc2ccc(-c3cccc4[nH]nc(N)c34)cc2)c1", "note": "[LINIFANIB]", "values": [{"measurement": "IC50", "setting": "[9]", "value": 95, "unit": "nM"}]}, {"compound": "CN1C(=O)C(Cc2c[nH]c3ccccc23)NC1=S", "note": "(stereo unspecified) [NECROSTATIN]", "values": [{"measurement": "IC50", "setting": "[16]", "value": 39100, "unit": "nM"}, {"measurement": "EC50", "setting": "[17]", "value": 540, "unit": "nM"}]}, {"compound": "Cc1ccc(Nc2nccc(N(C)c3ccc4c(C)n(C)nc4c3)n2)cc1S(N)(=O)=O", "note": "[PAZOPANIB]", "values": [{"measurement": "EC50", "setting": "[7]", "value": 254, "unit": "nM"}]}, {"compound": "COc1cc(/C=C/C(=O)N2CCC=CC2=O)cc(OC)c1OC", "note": "[PIPLARTINE]", "values": [{"measurement": "EC50", "setting": "[18]", "value": 540, "unit": "nM"}, {"measurement": "EC50", "setting": "[19]", "value": 6410, "unit": "nM"}]}, {"compound": "Cc1ccc(C(=O)Nc2ccc(CN3CCN(C)CC3)c(C(F)(F)F)c2)cc1C#Cc1cnc2cccnn12", "note": "[PONATINIB]", "values": [{"measurement": "EC50", "setting": "[10]", "value": 50, "unit": "nM"}, {"measurement": "EC50", "setting": "[7]", "value": 89, "unit": "nM"}]}, {"compound": "CC(C)(C)c1cc(NC(=O)Nc2ccc(-c3cn4c(n3)sc3cc(OCCN5CCOCC5)ccc34)cc2)no1", "note": "[QUIZARTINIB]", "values": [{"measurement": "EC50", "setting": "[20]", "value": 66500, "unit": "nM"}, {"measurement": "EC50", "setting": "[21]", "value": 194, "unit": "nM"}]}, {"compound": "CNC(=O)c1cc(Oc2ccc(NC(=O)Nc3cc(C(C)(C)C)nn3-c3ccc4ncccc4c3)c(F)c2)ccn1", "note": "[REBASTINIB]", "values": [{"measurement": "IC50", "setting": "[22]", "value": 18.6, "unit": "nM"}, {"measurement": "EC50", "setting": "[23]", "value": 18.7, "unit": "nM"}, {"measurement": "IC50", "setting": "[24]", "value": 6.49, "unit": "nM"}]}, {"compound": "CCCS(=O)(=O)Nc1ccc(F)c(C(=O)c2c[nH]c3ncc(-c4ccc(Cl)cc4)cc23)c1F", "note": "[VEMURAFENIB]", "values": [{"measurement": "EC50", "setting": "[25]", "value": 3750, "unit": "nM"}]}]}
